PMC6267619, “Isolation of Betulinic Acid, its Methyl Ester and Guaiane Sesquiterpenoids with Protein Tyrosine Phosphatase 1B Inhibitory Activity from the Roots of Saussurea lappa C.B.Clarke” (Molecules, 2008)
Values after ≈ are worked out from the molar mass of the structure shown. Values joined by “and” are separate entries in the source; they are usually repeats but may differ in a detail not shown here. Equal values may be shown once.

Target: T1, PTP1B (human, recombinant) (Homo sapiens, UniProt P18031)
T1 construct: purchased BIOMOL International LP (Plymouth Meeting, PA)
T1 sequence (P18031 1-435): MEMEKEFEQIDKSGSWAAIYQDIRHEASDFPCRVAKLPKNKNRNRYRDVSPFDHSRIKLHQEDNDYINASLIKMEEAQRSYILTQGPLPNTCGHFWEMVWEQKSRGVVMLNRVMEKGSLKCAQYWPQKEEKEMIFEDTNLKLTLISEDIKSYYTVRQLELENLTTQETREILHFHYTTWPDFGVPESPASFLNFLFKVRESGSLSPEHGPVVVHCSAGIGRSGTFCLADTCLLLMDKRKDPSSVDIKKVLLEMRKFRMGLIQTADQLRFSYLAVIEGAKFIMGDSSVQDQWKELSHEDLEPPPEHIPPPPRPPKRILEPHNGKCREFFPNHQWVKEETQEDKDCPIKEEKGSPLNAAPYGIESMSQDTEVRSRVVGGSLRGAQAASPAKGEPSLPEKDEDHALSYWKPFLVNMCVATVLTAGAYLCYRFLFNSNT
Assay: PTP1B inhibition assay with pNPP as substrate
Assay type: biochemical
Settings: for inhibition at 30 µg/mL / Inhibition % of PTP1B activity: at 30 μg/mL; for IC50: read-out: IC50 (PTP1B inhibitory activity) (converted)
Procedure: PTP1B (human, recombinant) was purchased from BIOMOL® International LP (Plymouth Meeting, PA). The enzyme activity was measured using p-nitrophenyl phosphate (pNPP) as a substrate. To each of 96 wells in a microtiter plate (final volume: 100 μL) was added 2 mM pNPP and PTP1B (0.05-0.1 μg) in a buffer containing 50 mM citrate (pH 6.0), 0.1 M NaCl, 1 mM EDTA, and 1 mM dithiothreitol (DTT) with or without test compounds. Following incubation at 37°C for 30 min, the reaction was terminated with 10 M NaOH. The amount of produced p-nitrophenol was estimated by measuring the absorbance at 405 nm. The non-enzymatic hydrolysis of 2 mM pNPP was corrected by measuring the increase in absorbance at 405 nm obtained in the absence of PTP1B enzyme.

[1] = na = not active (less than 50% inhibition at the level of 30 μg/mL)

Structure (SMILES) | inhibition at 30 µg/mL | also measured
C=C(C)[C@@H]1CC[C@]2(C(=O)O)CC[C@]3(C)[C@H](CC[C@@H]4[C@@]5(C)CC[C@H](O)C(C)(C)[C@@H]5CC[C@]43C)[C@@H]12 [Compound 1, betulinic acid] | 95.1% | IC50 [1]: 1.53 µM
C=C(C)[C@@H]1CC[C@]2(C(=O)OC)CC[C@]3(C)[C@H](CC[C@@H]4[C@@]5(C)CC[C@H](O)C(C)(C)[C@@H]5CC[C@]43C)[C@@H]12 [Compound 2, betulinic acid methyl ester] | 89.4% | IC50 [1]: 1.98 µM and 1.91 µM
C=C1CC[C@H]2C(=C)CC[C@@H]3[C@H](OC(=O)[C@H]3C)[C@@H]12 [Compound 3, mokko lactone] | 93.1% | IC50 [1]: 6.07 µM and 6.03 µM
C=C1CC[C@H]2C(=C)CC[C@H]3C(=C)C(=O)O[C@@H]3[C@@H]12 [Compound 4, dehydrocostuslactone] | 86.2% | IC50 [1]: 28.3 µM and 28.2 µM
C=C1C(=O)O[C@@H]2/C=C(\C)CC/C=C(\C)CC[C@@H]12 [Compound 5, costunolide] | < 50% | 
C/C1=C\[C@H]2OC(=O)[C@@H](C)[C@@H]2CC/C(C)=C/CC1 [Compound 6, 11β,13-dihydrocostunolide] | < 50% | 
C=C1CC[C@@H](O)[C@]2(C)CC[C@H]3C(=C)C(=O)O[C@@H]3[C@@H]12 [Compound 7, reynosin] | < 50% | 
C=C1C(=O)O[C@@H]2[C@@H]3[C@@](C)(CC[C@@H]12)[C@H](O)CC[C@@]3(C)O [Compound 8, 1β-hydroxy arbusculin A] | < 50% | 
CC[C@H](CC[C@@H](C)[C@H]1CC[C@H]2[C@@H]3CC=C4C[C@@H](O)CC[C@]4(C)[C@H]3CC[C@]12C)C(C)C [Compound 11, β-sitosterol] | < 50% | 
C=CCCCCC/C=C\C/C=C\C/C=C\CC [Compound 12, aplotaxene] |  | Inhibition % of PTP1B activity: < 50.0%
CCCCCCCCCCCCCCCCCC(=O)O[C@H]1CC[C@]2(C)[C@H]3CC=C4[C@@H]5[C@@H](C)[C@H](C)CC[C@]5(C)CC[C@@]4(C)[C@]3(C)CC[C@H]2C1(C)C [Compound 13, α-amyrin stearate] |  | Inhibition % of PTP1B activity: < 50.0%
CCCCCCCCCCCCCCCC(=O)C1=C(O)C(CO)OC1=O (stereo not shown) [RK-682, reference compound] |  | Inhibition % of PTP1B activity: 98.5%; IC50 (PTP1B inhibitory activity) [1]: 1.2 ± 0.09 µg/mL (≈ 3.26 µM)

Second part, led by results:

inhibition at 30 µg/mL | Structure (SMILES) | also measured
< 50% | C=C1C(=O)O[C@@H]2[C@H]3C(C)=CC[C@@H](O)[C@]3(C)CC[C@@H]12 [Compound 9, santamarine] | 
99% | C[C@H]1[C@H](C)CC[C@]2(C(=O)O)CC[C@]3(C)C(=CC[C@@H]4[C@@]5(C)CC[C@H](O)C(C)(C)[C@@H]5CC[C@]43C)[C@H]12 [Ursolic acid, reference compound] | 
